Here are results for one compound from patent US11919858B2, “Aminonapthoquinone compounds and pharmaceutical composition for blocking ubiquitination-proteasome system in diseases” (Calgent Biotechnology Co., Ltd., priority 2015, dated 2024).

A value given as a limit tells only on which side of the number the result lay.

One data set concerns the target PCTK1 (Homo sapiens, UniProt Q00536). As to the kind of experiment: Protein kinase assay (Kinome assay). Format: binding. An excerpt:
(§1) The compounds of the invention were subjected to protein kinase assay.

The target of another data set is JNK3 (Homo sapiens, UniProt P53779). As to the kind of experiment: Protein kinase assay (Kinome assay). Format: binding.
JNK3, sequence (P53779 whole entry, species assumed): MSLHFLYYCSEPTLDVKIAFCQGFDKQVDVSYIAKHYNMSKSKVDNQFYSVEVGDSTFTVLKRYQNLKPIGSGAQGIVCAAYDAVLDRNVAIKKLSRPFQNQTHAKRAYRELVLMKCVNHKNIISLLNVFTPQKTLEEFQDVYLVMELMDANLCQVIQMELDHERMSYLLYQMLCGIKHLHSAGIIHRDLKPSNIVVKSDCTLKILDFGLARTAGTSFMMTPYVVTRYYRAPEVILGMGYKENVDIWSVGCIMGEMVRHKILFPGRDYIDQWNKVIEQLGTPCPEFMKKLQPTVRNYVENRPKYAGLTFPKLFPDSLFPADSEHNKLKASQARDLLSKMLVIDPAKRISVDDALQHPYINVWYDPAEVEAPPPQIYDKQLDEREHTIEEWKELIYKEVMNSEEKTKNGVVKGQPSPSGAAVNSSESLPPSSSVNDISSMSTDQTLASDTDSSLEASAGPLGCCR
Text: as §1

The next data set deals with DYRK1B (Homo sapiens, UniProt Q9Y463). As to the kind of experiment: Protein kinase assay (Kinome assay). It counts as binding.
DYRK1B, sequence (Q9Y463 whole entry, species assumed): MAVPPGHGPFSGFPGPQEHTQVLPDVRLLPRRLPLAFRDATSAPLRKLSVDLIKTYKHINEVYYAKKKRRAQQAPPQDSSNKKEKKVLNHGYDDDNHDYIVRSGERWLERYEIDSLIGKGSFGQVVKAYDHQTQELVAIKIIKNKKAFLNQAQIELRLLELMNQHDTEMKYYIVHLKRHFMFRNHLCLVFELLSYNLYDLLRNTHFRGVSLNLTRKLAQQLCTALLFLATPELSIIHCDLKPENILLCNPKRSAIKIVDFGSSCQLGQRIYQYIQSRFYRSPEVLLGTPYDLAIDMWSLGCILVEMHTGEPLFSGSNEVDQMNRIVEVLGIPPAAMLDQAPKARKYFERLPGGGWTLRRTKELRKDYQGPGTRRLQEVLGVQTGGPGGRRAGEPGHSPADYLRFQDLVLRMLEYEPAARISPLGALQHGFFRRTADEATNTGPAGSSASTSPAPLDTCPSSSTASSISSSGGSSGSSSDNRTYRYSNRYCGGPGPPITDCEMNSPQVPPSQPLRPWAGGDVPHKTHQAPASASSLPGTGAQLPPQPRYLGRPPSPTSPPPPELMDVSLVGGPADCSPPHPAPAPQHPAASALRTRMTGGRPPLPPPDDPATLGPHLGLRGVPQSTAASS
Text: as §1

Another data set deals with ROCK2 (Homo sapiens, UniProt O75116). As to the kind of experiment: Protein kinase assay (Kinome assay). It counts as binding.
ROCK2, sequence (O75116 whole entry, species assumed): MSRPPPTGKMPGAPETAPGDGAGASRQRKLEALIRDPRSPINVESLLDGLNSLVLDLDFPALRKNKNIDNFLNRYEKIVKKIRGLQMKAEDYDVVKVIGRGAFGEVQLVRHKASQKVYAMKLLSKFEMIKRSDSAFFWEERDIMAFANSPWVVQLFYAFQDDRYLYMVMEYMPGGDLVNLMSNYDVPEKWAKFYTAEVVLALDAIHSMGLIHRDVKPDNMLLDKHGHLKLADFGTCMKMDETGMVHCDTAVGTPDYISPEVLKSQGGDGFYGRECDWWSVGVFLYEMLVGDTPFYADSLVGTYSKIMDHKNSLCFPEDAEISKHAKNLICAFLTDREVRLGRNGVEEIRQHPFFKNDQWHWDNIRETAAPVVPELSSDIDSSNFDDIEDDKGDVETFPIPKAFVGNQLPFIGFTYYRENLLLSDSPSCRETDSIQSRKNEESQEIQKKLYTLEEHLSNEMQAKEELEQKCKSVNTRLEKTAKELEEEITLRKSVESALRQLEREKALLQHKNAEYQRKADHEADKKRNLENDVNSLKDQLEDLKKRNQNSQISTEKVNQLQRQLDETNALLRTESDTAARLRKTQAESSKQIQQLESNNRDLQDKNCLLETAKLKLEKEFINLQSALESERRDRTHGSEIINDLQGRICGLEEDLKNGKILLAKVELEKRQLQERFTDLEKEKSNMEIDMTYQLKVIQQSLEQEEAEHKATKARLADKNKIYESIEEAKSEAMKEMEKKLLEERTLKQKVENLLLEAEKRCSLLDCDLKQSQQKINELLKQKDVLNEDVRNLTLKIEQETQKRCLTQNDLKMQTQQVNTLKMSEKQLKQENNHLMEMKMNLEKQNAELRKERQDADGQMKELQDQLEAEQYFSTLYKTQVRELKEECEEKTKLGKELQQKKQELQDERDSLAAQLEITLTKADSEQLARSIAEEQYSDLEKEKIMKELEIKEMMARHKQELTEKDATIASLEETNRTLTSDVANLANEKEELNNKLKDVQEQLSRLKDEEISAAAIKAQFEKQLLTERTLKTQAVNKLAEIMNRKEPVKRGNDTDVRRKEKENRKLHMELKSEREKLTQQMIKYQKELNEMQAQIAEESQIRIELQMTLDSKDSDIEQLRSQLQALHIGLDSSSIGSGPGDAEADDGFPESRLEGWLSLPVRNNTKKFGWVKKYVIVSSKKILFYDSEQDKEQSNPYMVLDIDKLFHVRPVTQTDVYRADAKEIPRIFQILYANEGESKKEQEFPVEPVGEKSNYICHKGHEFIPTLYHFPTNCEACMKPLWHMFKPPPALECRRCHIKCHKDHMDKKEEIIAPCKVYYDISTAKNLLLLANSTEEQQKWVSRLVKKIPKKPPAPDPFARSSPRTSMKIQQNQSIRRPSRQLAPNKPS
Text: as §1

The next data set has as its target JNK1 (Homo sapiens, UniProt P45983). As to the kind of experiment: Protein kinase assay (Kinome assay). Format: binding.
Text: as §1

For a further data set, the target named is CSNK1D (Homo sapiens, UniProt P48730). As to the kind of experiment: Protein kinase assay (Kinome assay). Format: binding.
CSNK1D, sequence (P48730 whole entry, species assumed): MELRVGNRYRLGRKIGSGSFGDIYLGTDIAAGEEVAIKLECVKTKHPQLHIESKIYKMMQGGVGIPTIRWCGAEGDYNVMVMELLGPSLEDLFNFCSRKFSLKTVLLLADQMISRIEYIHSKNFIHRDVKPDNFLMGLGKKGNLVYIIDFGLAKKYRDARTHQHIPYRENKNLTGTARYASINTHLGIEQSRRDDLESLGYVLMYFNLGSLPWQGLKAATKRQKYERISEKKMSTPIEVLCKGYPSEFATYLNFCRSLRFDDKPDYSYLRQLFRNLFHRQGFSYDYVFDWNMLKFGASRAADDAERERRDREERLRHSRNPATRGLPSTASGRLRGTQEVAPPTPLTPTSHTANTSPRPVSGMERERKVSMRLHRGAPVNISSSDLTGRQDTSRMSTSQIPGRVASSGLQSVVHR
Text: as §1

Another data set deals with RIOK2 (Homo sapiens, UniProt Q9BVS4). As to the kind of experiment: Protein kinase assay (Kinome assay). It counts as binding.
RIOK2, sequence (Q9BVS4 whole entry, species assumed): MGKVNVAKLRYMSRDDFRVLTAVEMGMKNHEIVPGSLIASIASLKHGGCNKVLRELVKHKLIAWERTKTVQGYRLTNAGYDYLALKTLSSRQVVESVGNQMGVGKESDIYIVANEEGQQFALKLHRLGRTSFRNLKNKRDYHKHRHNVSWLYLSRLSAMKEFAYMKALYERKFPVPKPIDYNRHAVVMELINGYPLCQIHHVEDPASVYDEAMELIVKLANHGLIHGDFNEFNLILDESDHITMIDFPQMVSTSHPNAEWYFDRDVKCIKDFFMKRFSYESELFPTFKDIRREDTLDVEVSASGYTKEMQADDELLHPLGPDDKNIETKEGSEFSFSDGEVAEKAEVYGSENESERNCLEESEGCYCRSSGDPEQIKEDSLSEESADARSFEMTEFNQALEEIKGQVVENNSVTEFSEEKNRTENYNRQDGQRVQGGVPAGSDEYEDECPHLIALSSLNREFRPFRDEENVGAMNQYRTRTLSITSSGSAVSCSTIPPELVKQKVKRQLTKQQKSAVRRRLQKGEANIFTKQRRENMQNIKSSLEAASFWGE
Text: as §1

Data set [1] has as its system IL-6 production in murine RAW264.7 macrophage cells. As to the kind of experiment: IL-6 production in LPS-stimulated RAW264.7 macrophage cells (ELISA). The conditions noted are these: Mus musculus, RAW 264.7 cells, pretreated 1 h, LPS (25 ng/mL) 24 h. It counts as cell-based. How it is done: Cell culture. The RAW264.7 mouse macrophage cells were purchased from the Bioresource Collection and Research Center (Hsinchu, Taiwan) and the cells cultured at 37° C. in 5% CO2/95% air in, respectively, 90% Ham's F-12 or Dulbecco's modified Eagle medium, both containing 10% heat-inactivated fetal bovine serum (FBS) (Invitrogen Life Technologies, Carlsbad, CA) and 1% penicillin/streptomycin (Biological Industries, Israel).
IL-6 Determination. To determine the effect of MPT0L056 on the production of cytokine IL-6 from LPS-stimulated cells, RAW 264.7 cells (1×10^6) were plated and pretreated in the presence or absence of MPT0L056 for 1 h, and then stimulated with LPS (25 ng/mL) for 24 h at 37° C. Supernatants were collected and the concentration of cytokines IL-6 was measured by ELISA kit.
(In general: ELISA stands for enzyme-linked immunosorbent assay.)

Data set [2] relates to human RPMI8226 multiple myeloma. As to the kind of experiment: Human RPMI8226 multiple myeloma xenograft in female nude mice (TMU-RPMI8226-e0001). It counts as in vivo. An excerpt:
The 42-day study utilized five groups of mice (n=6) bearing established human PRMI8226 multiple myeloma with mean volumes of ˜85 mm^3 on D1. […] (FIG. 3).
A general note: Xenograft models place foreign cells or tissue in a host animal.

Data set [3] concerns IL-6 production in human rheumatoid arthritis fibroblast-like synoviocyte cells. As to the kind of experiment: IL-6 production in RAFLS cells (ELISA). It counts as cell-based. The conditions noted are these: RA-FLS, 24 h. Here is the method: Cell culture. Human rheumatoid arthritis fibroblast-like synoviocytes (RAFLS) from Cell Application Inc. (San Diego, CA, USA) were grown in synoviocyte growth medium from the same supplier.
IL-6 Determination. RA-FLS (2.5×10^4) was treated with various concentrations of MPT0L056 for 24 h, then the medium was collected and assayed for IL-6 using commercial ELISA kit.

For data set [4], the system named is adjuvant-induced arthritis (AIA). As to the kind of experiment: Adjuvant-induced arthritis (AIA) model. Format: in vivo, Lewis rats. Here is the method: In vivo adjuvant-induced arthritis (AIA) model. Five-week-old male Lewis rats were obtained from the National Laboratory Animal Center (Taipei, Taiwan). Complete Freund's adjuvant (CFA) was prepared by suspending heat-killed Mycobacterium butyricum (Difco) in mineral oil at 3 mg/mL. CFA-induced arthritis was induced by intradermal injection of 100 μL, of the CFA emulsion into the base of the right hind paw on day 0. […] On days 0, 2, 6, 9, 13, 17, and 21, the animals were weighed and both hind paw volumes measured using a digital plethysmometer (Diagnostic & Research Instruments Co. Ltd, Taipei, Taiwan). On day 21, micro-computed tomography (micro-CT) of the paws was performed by the Core Facilities Center of the National Research Program for Biopharmaceuticals using an in vivo micro-CT scanner (Skyscan 1176, Bruker Corp., Kontich, Belgium) at 18 μm resolution and 180° scanning with a rotation step of 0.8o per image, 300 msec integration time, 70 keV photon energy, and 350 μA current.
Quantification of volumetric bone mineral density (BMD) and bone volume (BV) was performed in a defined bone area ranging 12 mm from tarsals to the end of the calcaneus. The bone mineral content (BMC) was described by the product of BV and BMD.

Data set [5] deals with human MDA-MB-231 breast adenocarcinoma. As to the kind of experiment: Human MDA-MB-231 breast cancer xenograft in female nude mice (TMU-MDA-MB-231-e0002).
Setting [6] is: MPT0L056 25 mg/kg p.o. once every day for 42 days.
Where [7] appears, read: MPT0L056 50 mg/kg p.o. once every day for 42 days.

JNK1, sequence (P45983 whole entry, species assumed): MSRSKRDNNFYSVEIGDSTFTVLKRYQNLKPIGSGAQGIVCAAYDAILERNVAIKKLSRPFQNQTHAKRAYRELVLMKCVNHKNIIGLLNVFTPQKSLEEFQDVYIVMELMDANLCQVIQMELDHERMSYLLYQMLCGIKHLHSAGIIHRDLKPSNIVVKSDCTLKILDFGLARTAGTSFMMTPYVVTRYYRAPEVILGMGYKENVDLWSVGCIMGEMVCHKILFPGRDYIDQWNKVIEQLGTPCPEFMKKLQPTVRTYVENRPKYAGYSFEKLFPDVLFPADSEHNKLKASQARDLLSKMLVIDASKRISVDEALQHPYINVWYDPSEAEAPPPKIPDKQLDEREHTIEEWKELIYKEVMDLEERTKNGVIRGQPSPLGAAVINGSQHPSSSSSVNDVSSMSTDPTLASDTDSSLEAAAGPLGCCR
PCTK1, sequence (Q00536 whole entry, species assumed): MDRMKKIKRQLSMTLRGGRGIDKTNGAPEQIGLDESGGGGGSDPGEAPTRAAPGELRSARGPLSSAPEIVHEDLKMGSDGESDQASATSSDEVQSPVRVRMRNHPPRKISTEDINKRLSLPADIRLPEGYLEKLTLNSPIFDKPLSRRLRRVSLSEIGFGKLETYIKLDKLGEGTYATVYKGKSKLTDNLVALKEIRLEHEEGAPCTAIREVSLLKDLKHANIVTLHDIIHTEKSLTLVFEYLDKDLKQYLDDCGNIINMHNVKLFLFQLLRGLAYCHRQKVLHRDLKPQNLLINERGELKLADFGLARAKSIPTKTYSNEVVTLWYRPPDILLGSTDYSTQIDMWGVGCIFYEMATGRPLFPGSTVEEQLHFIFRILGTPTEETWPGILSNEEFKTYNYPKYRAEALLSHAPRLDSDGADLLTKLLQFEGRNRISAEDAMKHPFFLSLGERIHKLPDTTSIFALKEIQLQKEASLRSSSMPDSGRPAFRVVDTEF

On to `O=C(Nc1ccncc1)c1ccc(CNC2=C(Cl)C(=O)c3ccccc3C2=O)cc1` [MPT0L056], for which the equilibrium dissociation constant (Kd) (usually the constant that tells how readily two partners part at equilibrium) is > 10 µM at PCTK1; 0.43 µM on JNK3; 1.4 µM on DYRK1B; 0.58 µM on ROCK2; 4.2 µM at JNK1; 2 µM at CSNK1D. The compound further yielded a Kd at RIOK2 of 6.6 µM. Besides, the values for the IC50 in data set [1] and in data set [3] were 1.21 µM and 7.26 µM, respectively. For the same compound, the antitumor activity entry in data set [2] (setting [6]), in data set [2] (setting [7]), in data set [5] (MPT0L056 50 mg/kg p.o. once every day for ten days) and in [5] (MPT0L056 100 mg/kg p.o. once every day for ten days) was “produced significant antitumor activity” each time. The “mice with complete regression (CR)” value in data set [2] (setting [6]) and in [2] (setting [7]) was “Two of six” in each case. Further, the body weight change result is given as “without significantly body weight loss” in data set [2] (MPT0L056 50 and 25 mg/kg, all doses tested, FIG. 4); “did not significantly affect the animal body weight” in [5] (MPT0L056 100, 50 and 25 mg/kg, FIG. 6). Also, the “bone mineral content (BMC) loss” value in data set [4] (AIA model, FIG. 17) is recorded as “can prevent”. Further, the “bone mineral density (BMD) loss” value in [4] (AIA model, FIG. 17) is reported as “can prevent”. The “development of arthritis (micro-CT)” value in data set [4] (MPT0L056 25 mg/kg, po, qd, day 2 to day 21, FIG. 15) is given as “inhibits development of arthritis”. Besides, the paw swelling entry in [4] (MPT0L056 25 mg/kg, po, qd, day 2 to day 21, FIG. 16) is on record as “significantly reduces paw swelling”. In data set [5] (MPT0L056 25 mg/kg p.o. once every day for ten days), the tumor growth delay result is given as “did not significantly express tumor growth delay”.
